Test results reported in US5451599A, “Complex salts of hematoporphyrin and of its derivatives, their synthesis, and therapeutic agent” (Wojskowa Akademia Techniczna im. Jaroslawa Dabrowskiego, priority 1991, dated 1995).

How the values were obtained:
[1] = tested on: Hela (cervix uteri cancer cells); test: 48 h incubation with the salts: cell fluorescence, living cells, multiplication coefficient (Table 1); type: cell-based, Human; conditions: 48 hs, 50 mcg/ml
Experimental: (§1) New compounds of formula 1 were tested on cell lines. Use was made of 9 different neoplastic cell lines which were incubated for 48 hs with various new salts of protoporphyrin and with a new salt of the conventionally applied HpD preparation/hematoporphyrin derivatives/obtained according to Lipson et al. All compounds were used in the form of aqueous solutions, at a concentration of 50 mcg/ml. Determination was made of:
(§2) 1/ Cell fluorescence /F/: after 48 hs incubation, the cells were washed away, the intensity of fluorescence was measured in a fluorescence microscope and was expressed on an arbitrary scale of 0-4 scores;
(§3) 2/ Percentage of living cells /P %/ after 48 hs incubation;
(§4) 3/ Cell multiplication coefficient /M/ in the presence of different preparations, expressed as: [formula]

CL = test: as above; type: cell-based; conditions: 48 hs, 50 mcg/ml
Experimental: as §1, §2, §3, §4

[2] = tested on: MA-104 (Rhesus monkey embryo kidney cancer cells); test: as above; type: cell-based; conditions: 48 hs, 50 mcg/ml
Experimental: as §1, §2, §3, §4

PZ = test: as above; type: cell-based; conditions: 48 hs, 50 mcg/ml
Experimental: as §1, §2, §3, §4

[3] = tested on: KB (oral cavity cancer cells); test: 48 h incubation with the salts: cell fluorescence, living cells, multiplication coefficient (Table 2); type: cell-based, Human; conditions: 48 hs, 50 mcg/ml
Experimental: as §1, §2, §3, §4
KB oral cavity cancer cells

[4] = tested on: HBT-39/w (breast cancer cells); test: as above; type: cell-based, Human; conditions: 48 hs, 50 mcg/ml
Experimental: as §1, §2, §3, §4

[5] = tested on: GR (GRMT/F6, mammary gland cancer cells of GR-strain mice); test: as above; type: cell-based, Murine; conditions: 48 hs, 50 mcg/ml
Experimental: as §1, §2, §3, §4
GRMT/F6 mammary gland cancer cells of GR-strain mice

[6] = tested on: HEp-2 (larynx cancer cells); test: 48 h incubation with the salts: cell fluorescence, living cells, multiplication coefficient (Table 3); type: cell-based, Human; conditions: 48 hs, 50 mcg/ml
Experimental: as §1, §2, §3, §4
Hep-2 larynx cancer cells

[7] = tested on: Mm (Mm5MT/C1, mammary gland cancer cells of C3H-strain mice); test: as above; type: cell-based, Murine; conditions: Mm; 48 hs; 50 mcg/ml
Experimental: as §1, §2, §3, §4
mammary gland cancer cells of C3H-strain mice

[8] = tested on: T-47D (breast cancer cells); test: as above; type: cell-based, Human; conditions: 48 hs, 50 mcg/ml
Experimental: as §1, §2, §3, §4
T-47D breast cancer cells

Compound	Cell fluorescence /F/ [1]	Cell multiplication coefficient /M/ [1]	Percentage of living cells /P %/ [1] [%]	Cell fluorescence /F/ (CL)	Cell multiplication coefficient /M/ (CL)	Percentage of living cells /P %/ (CL) [%]	Cell fluorescence /F/ [2]	Cell multiplication coefficient /M/ [2]	Percentage of living cells /P %/ [2] [%]	Cell fluorescence /F/ (PZ)	Cell multiplication coefficient /M/ (PZ)	Percentage of living cells /P %/ (PZ)	Cell multiplication coefficient /M/ [3]	Percentage of living cells /P %/ [3] [%]	Cell fluorescence /F/ [4]	Cell multiplication coefficient /M/ [4]	Percentage of living cells /P %/ [4] [%]	Cell fluorescence /F/ [5]	Cell multiplication coefficient /M/ [5]	Percentage of living cells /P %/ [5] [%]	also measured
CSCCC(NC(C)C1=C(C)c2cc3[nH]c(cc4nc(cc5[nH]c(cc1n2)c(C)c5C(C)NC(CCSC)C(=O)O)C(C)=C4CCC(=O)O)c(CCC(=O)O)c3C)C(=O)O.N=C(N)NCCC[C@H](N)C(=O)O.N=C(N)NCCC[C@H](N)C(=O)O (stereo not drawn) [PP/Met/2 /Arg/2, l-arginine di/N-methionyl/-protoporphyrinate]	++++	0,05	5	+	0	0	++	0,33	22	+	0,08	8%	0,12	5	++++	0,08	8	++++	0,22	25	Cell fluorescence /F/ [3]: ++; Cell fluorescence /F/ [6]: +++; Cell multiplication coefficient /M/ [6]: 0; Percentage of living cells /P %/ [6]: 0%; Cell fluorescence /F/ [7]: ++++; Cell multiplication coefficient /M/ [7]: 0,08; Percentage of living cells /P %/ [7]: 8%; Cell fluorescence /F/ [8]: +++; Cell multiplication coefficient /M/ [8]: 0,10; Percentage of living cells /P %/ [8]: 10%
CC1=C(CCC(=O)O)c2cc3[nH]c(cc4nc(cc5[nH]c(cc1n2)c(C(C)NC(CO)C(=O)O)c5C)C(C(C)NC(CO)C(=O)O)=C4C)c(C)c3CCC(=O)O.N=C(N)NCCC[C@H](N)C(=O)O.N=C(N)NCCC[C@H](N)C(=O)O (stereo not drawn) [PP/Ser/2 /Arg/2, l-arginine di/N-seryl/-protoporphyrinate]	++	0,50	55	+	0	0	-	0,16	0	++	0,02	2,5%	0	0	++	0,50	33	+	0,12	12	Cell fluorescence /F/ [3]: ++; Cell fluorescence /F/ [6]: +; Cell multiplication coefficient /M/ [6]: 0,50; Percentage of living cells /P %/ [6]: 25%; Cell fluorescence /F/ [7]: +; Cell multiplication coefficient /M/ [7]: 0,37; Percentage of living cells /P %/ [7]: 37%; Cell fluorescence /F/ [8]: +++; Cell multiplication coefficient /M/ [8]: 0,60; Percentage of living cells /P %/ [8]: 40%
CC1=C(CCC(=O)O)c2cc3[nH]c(cc4nc(cc5[nH]c(cc1n2)c(C(C)NC(Cc1c[nH]c2ccccc12)C(=O)O)c5C)C(C(C)NC(Cc1c[nH]c2ccccc12)C(=O)O)=C4C)c(C)c3CCC(=O)O.N=C(N)NCCC[C@H](N)C(=O)O.N=C(N)NCCC[C@H](N)C(=O)O (stereo not drawn) [PP/Trp/2 /Arg/2, l-arginine di/N-tryptophanyl/-protoporphyrinate]	+++	0,62	62	-	0,50	50	+	0,25	25	+	0,50	50%	0,21	21	++++	0,11	18	+++	0,62	62	Cell fluorescence /F/ [6]: +++; Cell multiplication coefficient /M/ [6]: 0,15; Percentage of living cells /P %/ [6]: 15%; Cell fluorescence /F/ [7]: +++; Cell multiplication coefficient /M/ [7]: 0,33; Percentage of living cells /P %/ [7]: 11%; Cell fluorescence /F/ [8]: +; Cell multiplication coefficient /M/ [8]: 0,13; Percentage of living cells /P %/ [8]: 13%
l-arginine di/N-arginyl/-protoporphyrinate [PP/Arg/2 /Arg/2]	++++	0,28	11	++	0,03	4	++	0,42	31	+	0,10	10%	0,16	16	++++	0,28	28	+++	0,12	12	Cell fluorescence /F/ [3]: +; Cell fluorescence /F/ [6]: +; Cell multiplication coefficient /M/ [6]: 0,14; Percentage of living cells /P %/ [6]: 5%; Cell fluorescence /F/ [7]: +++; Cell multiplication coefficient /M/ [7]: 0,38; Percentage of living cells /P %/ [7]: 12%; Cell fluorescence /F/ [8]: +++; Cell multiplication coefficient /M/ [8]: 0,40; Percentage of living cells /P %/ [8]: 40%
